Test results: patent US9102637B2, “Bicyclic thiazole compounds” (CARNA BIOSCIENCES INC., priority 2013, dated 2015)

Molecular target: human TNIK (N-terminal segment, TNIK_N, residues 1-314) (Homo sapiens (Human), UniProt Q9UKE5)
Assay: TNIK kinase assay (mobility shift)
Assay type: biochemical
Settings: TNIK_N kinase activity, 25 μM ATP, 1 h at room temperature
From the text: Preparation of Recombinant Human TNIK (N-Terminal Segment):
A cDNA encoding the N-terminal segment (TNIK_N, residues 1-314) containing the kinase domain of human TNIK (NM_015028.1) was amplified from cDNA mixture synthesized from human tissue (Biochain) by PCR using the following primers.
The cDNA was subcloned into baculovirus transfer vector pFastBac_GSTb that includes protease cleavage site and glutathione S-transferase purification tag (GST-tag). The plasmid was purified and the insertion of the pFastBac_GSTb-TNIK_N was confirmed by DNA sequencing. Then E. coli DH10Bac competent cells were transformed with the plasmid to prepare the recombinant bacmid according to the instructions for the Bac-to-Bac™ baculovirus expression systems (Invitrogen). The Sf9 cells were transfected with the recombinant bacmid containing pFastBac_GSTb-TNIK_N using Cellfectin Reagent (Invitrogen) in SF-9001I serum free media (Invitrogen). The viral supernatant was collected from the medium 72 h after transfection. The virus was amplified three times by infecting actively growing Sf9 or Sf21 cells in Grace's insect media (Invitrogen) supplemented with 10% FCS and an antibiotic-antimycotic reagent (Invitrogen) for 72 h at 27° C. in T-flask or roller bottles. The titer of amplified TNIK_N virus was estimated at 2.36×10^8 pfu/ml by using BacPAK™ Baculovirus Rapid Titer kit (Clontech).
Log-phase Sf21 cells (2×10^6 cells/ml) in the Grace's insect media were infected with the recombinant baculovirus at MOI of 3.0 and incubated in roller bottles (250 ml media per bottle) for 72 h at 27° C., after which, the cells were collected by centrifugation, and the cell pellet washed with cold PBS and kept at −80° C. until purification. The following purification procedures were carried out at 4° C. The frozen cells were thawed on ice and lysed in lysis buffer (50 mM Tris-HCl, pH 7.5, 150 mM NaCl, 1% Nonidet P-40, 5 mM DTT, 0.5 mM EDTA, 0.5 mM EGTA) supplemented with 1 mM phenylmethansulfonylfluoride, 2 μg/ml leupeptin, 2 μg/ml aprotinin, 1 mM NaF, 100 μM sodium orthovanadate, and 1 μM cantharidin by sonication. The suspended lysate was cleared by centrifugation at 9000g for 20 min and the supernatant was incubated for 1 h with glutathione Sepharose beads (GE Healthcare). The beads were suspended in buffer-H (50 mM Tris-HCl, pH 7.5, 1 M NaCl, 1 mM DTT, 0.5 mM EDTA, 0.5 mM EGTA and 0.05% Brij35) and washed with buffer-H followed by buffer-L (50 mM Tris-HCl, pH 7.5, 150 mM NaCl, 1 mM DTT, 0.5 mM EDTA, 0.5 mM EGTA, 0.05% Brij35) in an Econo-pack column (BIO-RAD). The bound TNIK_N was eluted with elution buffer (50 mM Tris-HCl, pH 8.0, 150 mM NaCl, 1 mM DTT, 10% glycerol, 0.5 mM EDTA, 0.5 mM EGTA and 5 mM reduced glutathione). The eluted fractions were collected and determined the protein concentration by Bradford reagent (BIO-RAD). The TNIKN fractions were pooled and desalted using 10DG column (BIORAD) equilibrated with the storage buffer (50 mM Tris-HCl, pH 7.5, 150 mM NaCl, 1 mM DTT, 10% glycerol, 0.05% Brij35). The purified TNIKN was characterized by electrophoresis using 4-20% polyacrylamide gels and matrix-assisted laser desorption/ionization reflection time-of-flight (MALDI-TOF) mass spectrometry on a Voyager-DE RP MALDI/TOF (Applied Biosystems). TNIK_N was confirmed by the molecular weight and. MASCOT Peptide Mass Fingerprint.
The kinase assays were conducted in a 20 μl volume using 384-well plates (Greiner). The reaction mixture consists of compound or vehicle (1% DMSO), 0.08 ng/μl TNIK_N, 1 μM FITC-labeled substrate peptides, including E-aminocaproic acid and 7 amino acids (described as SEQ ID NO.3 in “Kinase assay of TEST EXAMPLE 1” of WO 2010/064111(P.31)), 20 mM Hepes, pH 7.5, 0.01% Triton X-100, 5 mM MgCl2, 25 μM ATP and 2 mM DTT. As blank, TNIK N was excluded from the reaction mixture of vehicle (1% DMSO). […]

Chain of human TNIK (N-terminal segment, TNIK_N, residues 1-314) (Q9UKE5 1-314): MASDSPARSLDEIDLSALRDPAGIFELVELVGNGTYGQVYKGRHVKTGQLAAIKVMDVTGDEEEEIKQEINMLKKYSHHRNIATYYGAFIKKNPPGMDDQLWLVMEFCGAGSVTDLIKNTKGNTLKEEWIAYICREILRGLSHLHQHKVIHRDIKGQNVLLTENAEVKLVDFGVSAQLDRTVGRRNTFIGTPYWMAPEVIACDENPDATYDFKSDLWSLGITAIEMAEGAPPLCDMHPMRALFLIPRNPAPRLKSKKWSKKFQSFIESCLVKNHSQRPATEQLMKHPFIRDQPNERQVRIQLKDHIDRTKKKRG

**Q.** How did the IC50 turn out when `NC(=O)c1nc(Nc2ccc3ccccc3c2)sc1NC(=O)c1ccc(CN2CCC(O)CC2)cc1` [Example 173, 5-{4-[(4-hydroxypiperidin-1-yl)methyl]benzamido}-2-(naphthalen-2-ylamino)thiazole-4-carbox-amide] was run?
**A.** 3.4 nM

**Q.** With `CN1CCN(C/C=C/C(=O)Nc2sc(Nc3ccc4ccccc4c3)nc2C(N)=O)CC1` [Example 174, (E)-5-(4-(4-methylpiperazin-1-yl)but-2-enamido)-2-(naphthalen-2-ylamino)thiazole-4-carboxamide] as the compound, how does the IC50 read?
**A.** 16 nM

**Q.** `NC(=O)c1nc(Nc2ccc3ccccc3c2)sc1NC(=O)c1ccc(CN2CCNC(=O)C2)cc1` [Example 180, 2-(naphthalen-2-ylamino)-5-{4-[(3-oxopiperazin-1-yl)methyl]benzamido}thiazole-4-carboxamide] was tested. Which IC50 did it give?
**A.** 4.2 nM

**Q.** For `NC(=O)c1nc(Nc2ccc3ccccc3c2)sc1NC(=O)c1ccc(CN2CCN(CCO)CC2)cc1` [Example 185, 5-(4-{[4-(2-hydroxyethyl)piperazin-1-yl]methyl}benzamido)-2-(naphthalen-2-ylamino)thiazole-4-carboxamide], which IC50 is on record?
**A.** 2.7 nM

**Q.** How did the IC50 turn out when `NC(=O)c1nc(Nc2ccc3ccccc3c2)sc1NC(=O)c1ccc(N2CCN(CCO)CC2)cc1` [Example 187, 5-{4-[4-(2-hydroxyethyl)piperazin-1-yl]benzamido}-2-(naphthalen-2-ylamino)thiazole-4-carbox-amide] was run?
**A.** 7.2 nM

**Q.** `NCCNc1ccc(C(=O)Nc2sc(Nc3ccc4ccccc4c3)nc2C(N)=O)cc1` [Example 188, 5-{4-[(2-aminoethyl)amino]benzamido}-2-(naph-thalen-2-ylamino)thiazole-4-carboxamide] was tested. Which IC50 did it give?
**A.** 8.4 nM

**Q.** With `NC(=O)c1nc(Nc2ccc3ccccc3c2)sc1NC(=O)c1ccc(CN2CCCCC2CO)cc1` (centres unmarked) [Example 189, 5-(4-{[2-(hydroxymethyl)piperidin-1-yl]methyl}benzamido)-2-(naphthalen-2-ylamino)thiazole-4-carboxamide] as the compound, how does the IC50 read?
**A.** 6.8 nM

**Q.** `CN1CCCN(Cc2ccc(C(=O)Nc3sc(Nc4ccc5ccccc5c4)nc3C(N)=O)cc2)CC1` [Example 190, 5-{4-[(4-methyl-1,4-diazepan-1-yl)methyl]benz-amido}-2-(naphthalen-2-ylamino)thiazole-4-carbox-amide] was tested. Which IC50 did it give?
**A.** 3.2 nM

**Q.** How did the IC50 turn out when `NC(=O)c1nc(Nc2ccc3ccccc3c2)sc1NC(=O)c1ccc(CN2CC(O)C2)cc1` [Example 201, 5-{4-[(3-hydroxyazetidin-1-yl)methyl]benzamido}-2-(naphthalen-2-ylamino)thiazole-4-carbox-amide] was run?
**A.** 5.6 nM

**Q.** How did the IC50 turn out when `NC(=O)c1nc(Nc2ccc3ccccc3c2)sc1NC(=O)c1ccc(CN2CC[C@@H](O)C2)cc1` [Example 202, (R)-5-{4-[(3-hydroxypyrrolidin-1-yl)methyl]benzamido}-2-(naphthalen-2-ylamino)thiazole-4-carboxamide] was run?
**A.** 5.5 nM

**Q.** How did the IC50 turn out when `NC(=O)c1nc(Nc2ccc3ccccc3c2)sc1NC(=O)c1ccc(CN2CC[C@H](O)C2)cc1` [Example 203, (S)-5-{4-[(3-hydroxypyrrolidin-1-yl)methyl]benzamido}-2-(naphthalen-2-ylamino)thiazole-4-carboxamide] was run?
**A.** 5 nM

**Q.** For `C#CC(=O)Nc1sc(Nc2ccc3ccccc3c2)nc1C(N)=O` [Example 204, 2-(naphthalen-2-ylamino)-5-propiolamidothiazole-4-carboxamide], which IC50 is on record?
**A.** 6 nM

**Q.** Which IC50 does the source give for `NC(=O)c1nc(Nc2ccc3ccccc3c2)sc1NC(=O)C#CCO` [Example 218, 5-(4-hydroxybut-2-ynamido)-2-(naphthalen-2-yl-amino)thiazole-4-carboxamide] here?
**A.** 4.5 nM

**Q.** With `NC(=O)c1nc(Nc2ccc3ccccc3c2)sc1NC(=O)c1ccc(CN2CC[C@H](N)C2)cc1` [Example 220, (S)-5-{4-[(3-aminopyrrolidin-1-yl)methyl]benz-amido}-2-(naphthalen-2-ylamino)thiazole-4-carbox-amide] as the compound, how does the IC50 read?
**A.** 3 nM

**Q.** How did the IC50 turn out when `CN(C)[C@H]1CCN(Cc2ccc(C(=O)Nc3sc(Nc4ccc5ccccc5c4)nc3C(N)=O)cc2)C1` [Example 221, (S)-5-(4-{[3-(dimethylamino)pyrrolidin-1-yl]methyl}benzamido)-2-(naphthalen-2-ylamino) thiazole-4-carboxamide] was run?
**A.** 2.6 nM

**Q.** For `NC(=O)c1nc(Nc2ccc3ccccc3c2)sc1NC(=O)c1ccc(CN2CCC(N)CC2)cc1` [Example 222, 5-{4-[(4-aminopiperidin-1-yl)methyl]benzamido}-2-(naphthalen-2-ylamino)thiazole-4-carboxamide], which IC50 is on record?
**A.** 1.3 nM

**Q.** `NC(=O)c1nc(Nc2ccc3ccccc3c2)sc1NC(=O)C#CCCO` [Example 225, 5-(5-hydroxypent-2-ynamido)-2-(naphthalen-2-ylamino)thiazole-4-carboxamide] was tested. Which IC50 did it give?
**A.** 4 nM

**Q.** With `NC(=O)c1nc(Nc2ccc3ccccc3c2)sc1NC(=O)c1ccc(Cc2nn[nH]n2)cc1` [Example 231, 5-{4-[(2H-tetrazol-5-yl)methyl]benzamido}-2-(naphthalen-2-ylamino)thiazole-4-carboxamide] as the compound, how does the IC50 read?
**A.** 2.9 nM

**Q.** Which IC50 does the source give for `NC(=O)c1nc(Nc2ccc3ccccc3c2)sc1NC(=O)c1ccc(Cn2cccn2)cc1` [Example 232, 5-{4-[(1H-pyrazol-1-yl)methyl]benzamido}-2-(naphthalen-2-ylamino)thiazole-4-carboxamide] here?
**A.** 10.3 nM

**Q.** For `NC(=O)c1nc(Nc2ccc3ccccc3c2)sc1NC(=O)C#CCCCn1cncn1` [Example 233, 5-[6-(1H-1,2,4-triazol-1-yl)hex-2-ynamido]-2-(naphthalen-2-ylamino)thiazole-4-carboxamide], which IC50 is on record?
**A.** 10.7 nM

**Q.** `NC(=O)c1nc(Nc2ccc3ccccc3c2)sc1NC(=O)C#CCCCn1ccnc1` [Example 234, 5-[6-(1H-imidazol-1-yl)hex-2-ynamido]-2-(naph-thalen-2-ylamino)thiazole-4-carboxamide] was tested. Which IC50 did it give?
**A.** 9.7 nM

**Q.** `Cc1nccn1Cc1ccc(C(=O)Nc2sc(Nc3ccc4ccccc4c3)nc2C(N)=O)cc1` [Example 237, 5-{4-[(2-methyl-1H-imidazol-1-yl)methyl]benz-amido}-2-(naphthalen-2-ylamino)thiazole-4-carbox-amide] was tested. Which IC50 did it give?
**A.** 2.3 nM

**Q.** With `Cc1cn(Cc2ccc(C(=O)Nc3sc(Nc4ccc5ccccc5c4)nc3C(N)=O)cc2)cn1` [Example 238, 5-{4-[(4-methyl-1H-imidazol-1-yl)methyl]benz-amido}-2-(naphthalen-2-ylamino)thiazole-4-carbox-amide] as the compound, how does the IC50 read?
**A.** 3.1 nM

**Q.** Which IC50 does the source give for `NC(=O)c1nc(Nc2ccc3ccccc3c2)sc1NC(=O)c1ccc(Cn2cnc([N+](=O)[O-])c2)cc1` [Example 239, 2-(naphthalen-2-ylamino)-5-{4-[(4-nitro-1H-imidazol-1-yl)methyl]benzamido}thiazole-4-carbox-amide] here?
**A.** 5.9 nM

**Q.** For `NC(=O)c1nc(Nc2ccc3ccccc3c2)sc1NC(=O)c1ccc(Cn2cnc([N+](=O)[O-])n2)cc1` [Example 243, 2-(naphthalen-2-ylamino)-5-{4-[(3-nitro-1H-1,2,4-triazol-1-yl)methyl]benzamido}thiazole-4-carbox-amide], which IC50 is on record?
**A.** 14.8 nM

**Q.** Which IC50 does the source give for `Cc1nnnn1Cc1ccc(C(=O)Nc2sc(Nc3ccc4ccccc4c3)nc2C(N)=O)cc1` [Example 244, 5-{4-[(5-methyl-1H-tetrazol-1-yl)methyl]benz-amido}-2-(naphthalen-2-ylamino)thiazole-4-carbox-amide] here?
**A.** 7.1 nM
